Laboratory results from the METLIN SMRT retention time set (Domingo-Almenara et al. 2019).

Assay: gradient 5% acetonitrile 3 min, to 50% in 2 min, to 85% in 15 min, held 3 min, 100 µL/min
Details: column: Zorbax Extend-C18 2.1 x 50 mm; eluents: water / acetonitrile, 0.1% formic acid
Procedure, shortened: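 Retention times come from adduct peaks that were picked computationally and then checked by hand. The standards, pure and pooled in mixtures of ~100 molecules, were run on a Zorbax Extend-C18 column (2.1 × 50 mm, 1.8 μm) at 100 μL/min with water and acetonitrile, each with 0.1% formic acid. Detection was by quadrupole time-of-flight mass spectrometry in positive and negative ionization mode, with a dead volume of 40 μL and a dwell volume of 900 μL.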

`CCCN(CCC)C1Cc2cc(OC)c(OC)cc2C1` showed an RP-LC retention time of 680 s.
`Cc1cc(-c2nnc(-c3ccc(F)cc3)o2)c(C)n1CC(=O)NCc1ccc(F)cc1F` gave an RP-LC retention time of 939 s.
`CSc1cccc(NC(=O)N(C)Cc2nc3cc(C(=O)N(C)C)ccc3n2C)c1` gave an RP-LC retention time of 626 s.
`COc1ccc(-n2c(=O)c3sccc3n(Cc3nc(-c4ccccc4C)no3)c2=O)cc1` gave an RP-LC retention time of 1000 s.
`O=C(NCc1cc(-c2cc3ccccc3o2)on1)c1ccc2c(c1)OCO2` gave an RP-LC retention time of 856 s.
Compound `CCSc1nc2ccc(NS(=O)(=O)c3cc(F)cc(F)c3)cc2s1` has an RP-LC retention time of 1050 s.
For `COC(=O)c1ccc(C(=O)OC)c(NC(=O)c2cnc3n(c2=O)CCS3)c1`, the RP-LC retention time was 700 s.
`Cc1ccc(Cn2c(=O)c3sccc3n(Cc3nc(-c4ccccc4)no3)c2=O)cc1` gave an RP-LC retention time of 1150 s.
`Cc1ccc(N2CC(NC(=O)C(=O)c3c[nH]c4ccccc34)CC2=O)cc1` (centres undefined) gave an RP-LC retention time of 823 s.
Work on `CCNC(=O)c1cc(C)nc2ccc(C)cc12` yielded an RP-LC retention time of 568 s.
With `CN(C(=O)Cn1nc(Cc2cccnc2)c2ccccc2c1=O)C1CCCCC1` the RP-LC retention time was 640 s.
Compound `Cc1ccc(Nc2c(-c3ccc(N4CCOCC4)cc3)nc3c(C)cccn23)cc1` has an RP-LC retention time of 739 s.
For `CCOC(=O)c1ccc(Nc2c(-c3ccc(C(=O)OC)cc3)nc3cnccn23)cc1`, the RP-LC retention time was 856 s.
`CCOc1ccc(-n2c(CN3CCN(C(=O)NCC(C)C)CC3)nc3cccnc32)cc1` gave an RP-LC retention time of 654 s.
In the case of `COc1ccc(-c2c(C)noc2NC(C)=O)cc1S(=O)(=O)Nc1ccccc1Cl`, the RP-LC retention time was 783 s.
With `COc1ccc(OCc2noc(CNC(=O)Cn3cnc4ccccc43)n2)cc1` the RP-LC retention time was 592 s.
Work on `O=C(OCn1nnc2ccccc2c1=O)c1ccc(S(=O)(=O)N2CCCCC2)cc1` yielded an RP-LC retention time of 936 s.
For `O=C(CSc1ncc(-c2ccccc2)[nH]1)Nc1nc(-c2ccc(C3CCCCC3)cc2)cs1`, the RP-LC retention time was 1420 s.
With `CCN(CC)C(=O)N1CCCC1Cc1noc(-c2cccnc2)n1` (centres undefined) the RP-LC retention time was 712 s.
Compound `CN(C)c1ccc(N2C=C(C(=O)N3CCCC3)S(=O)(=O)c3ccccc32)cc1` has an RP-LC retention time of 811 s.
`CCCNC(=O)C(=O)NCC(c1ccc2c(c1)OCO2)N1CCOCC1` (centres undefined) gave an RP-LC retention time of 595 s.
`Fc1cccc(CN2CCc3nc(N4CCOCC4)ncc3C2)c1` gave an RP-LC retention time of 604 s.
Compound `O=S(=O)(c1ccccc1)N1CCc2nc(-c3ccc(Cl)cc3)ncc2C1` has an RP-LC retention time of 1170 s.
With `Cc1ccc(Nc2c(-c3ccccc3O)nc3ccccn23)cc1` the RP-LC retention time was 739 s.
With `Cc1ccc(-c2cc3c(N4CCCC(C(=O)NC(C)C)C4)nccn3n2)c(C)c1` (centres undefined) the RP-LC retention time was 828 s.
With `CSc1ccc(-c2nc3nc(C)cc(C)n3c2Nc2ccc(C(C)C)cc2)cc1` the RP-LC retention time was 943 s.
`Cc1cc(C)n(CCC(=O)N2CC(Oc3ccc(-c4nc(-c5ccccc5)no4)cc3)C2)n1` gave an RP-LC retention time of 1020 s.
With `CNC(=O)C1CCCN(c2nc3ncn(CC(=O)Nc4ccccc4Cl)c(=O)c3s2)C1` (centres undefined) the RP-LC retention time was 654 s.
With `COc1ccc(OC)c(NC(=O)Nc2c(-c3ccccc3)nc3ccccn23)c1` the RP-LC retention time was 668 s.
`Cc1occc1C(=O)N1CC(c2nc(CCN(C)C(=O)C3CC3)no2)C1` showed an RP-LC retention time of 661 s.
Work on `CCCNC(=O)C1CCN(c2ccc(SCC(=O)N(C)c3ccccc3)nn2)CC1` yielded an RP-LC retention time of 627 s.
With `CCc1noc(NC(C)=O)c1-c1ccc(C)c(S(=O)(=O)Nc2ccc(C(=O)OC)cc2)c1` the RP-LC retention time was 736 s.
`C=C[C@@]1(C)CC(=O)[C@]2(O)[C@@]3(C)[C@H](O)CCC(C)(C)[C@@H]3[C@H](O)[C@H](OC(C)=O)[C@@]2(C)O1` gave an RP-LC retention time of 1040 s.
With `O=C(NCc1ccco1)c1cc2c(=O)n(Cc3ccccc3)ccc2s1` the RP-LC retention time was 822 s.
For `COc1ccc(OC)c(NC(=O)N2CCc3c(c(-c4nnc(-c5ccc(F)cc5)o4)nn3C)C2)c1`, the RP-LC retention time was 876 s.
With `CC(C)NC(=O)c1ccc(OCC2CCCN(C(=O)c3ccc(N(C)C)cc3)C2)cc1` (centres undefined) the RP-LC retention time was 818 s.
Compound `COCc1noc([C@@H]2CC(F)(F)CN2C(=O)C2CCCC2)n1` has an RP-LC retention time of 810 s.
Work on `CNC(=O)c1sc(-c2ccc(C)cc2)nc1C` yielded an RP-LC retention time of 785 s.
In the case of `CCc1nn2c(CNS(=O)(=O)c3cccc(Cl)c3)c(-c3ccccc3)nc2s1`, the RP-LC retention time was 971 s.
Work on `CCC1CN2C=NC(N3CCN(C(=O)c4nn(C)c5ccccc45)CC3)=CC2=N1` (centres undefined) yielded an RP-LC retention time of 636 s.
For `O=C(NC1CCCCC1)C1CCN(C(=O)c2cccn2-c2cccnc2)CC1`, the RP-LC retention time was 673 s.
Compound `O=C(CCc1nc(CSc2nnc(-c3ccccc3)o2)no1)Nc1ccc(Cl)cc1` has an RP-LC retention time of 949 s.
`Cc1ccc(CNC(=O)c2c(C)sc3ncnc(N4CCCCC4)c23)cc1` showed an RP-LC retention time of 1070 s.
Compound `CCN1c2ccc(C)cc2C(=O)NC12CCN(C(=O)c1ccccc1F)CC2` has an RP-LC retention time of 806 s.
